Counter-ions that a name gives are not always drawn.
Target: T1, recombinant guanylate cyclase reporter cell line (Rattus norvegicus, UniProt P19686+P20595)
T1 construct: expressed in transfected cells; host or cells: recombinant reporter cell line
T1 sequence (P19686 1-690): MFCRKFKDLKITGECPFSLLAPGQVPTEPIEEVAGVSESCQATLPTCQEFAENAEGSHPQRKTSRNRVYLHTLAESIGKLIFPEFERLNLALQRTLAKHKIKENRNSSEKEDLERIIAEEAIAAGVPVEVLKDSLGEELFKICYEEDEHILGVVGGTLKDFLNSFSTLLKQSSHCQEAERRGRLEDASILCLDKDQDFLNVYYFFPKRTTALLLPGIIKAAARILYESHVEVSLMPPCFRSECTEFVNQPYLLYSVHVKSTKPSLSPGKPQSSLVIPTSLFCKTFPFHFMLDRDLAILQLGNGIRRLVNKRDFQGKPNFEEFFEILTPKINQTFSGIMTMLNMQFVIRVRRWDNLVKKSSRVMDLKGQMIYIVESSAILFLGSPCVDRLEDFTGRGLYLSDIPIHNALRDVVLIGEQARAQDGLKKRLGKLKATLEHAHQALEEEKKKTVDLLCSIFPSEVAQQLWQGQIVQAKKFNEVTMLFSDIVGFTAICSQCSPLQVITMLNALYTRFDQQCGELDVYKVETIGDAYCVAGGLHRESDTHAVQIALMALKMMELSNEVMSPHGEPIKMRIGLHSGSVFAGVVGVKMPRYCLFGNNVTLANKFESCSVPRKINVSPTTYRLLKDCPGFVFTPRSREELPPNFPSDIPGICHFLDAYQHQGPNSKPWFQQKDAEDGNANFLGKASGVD
T1 sequence (P20595 1-619): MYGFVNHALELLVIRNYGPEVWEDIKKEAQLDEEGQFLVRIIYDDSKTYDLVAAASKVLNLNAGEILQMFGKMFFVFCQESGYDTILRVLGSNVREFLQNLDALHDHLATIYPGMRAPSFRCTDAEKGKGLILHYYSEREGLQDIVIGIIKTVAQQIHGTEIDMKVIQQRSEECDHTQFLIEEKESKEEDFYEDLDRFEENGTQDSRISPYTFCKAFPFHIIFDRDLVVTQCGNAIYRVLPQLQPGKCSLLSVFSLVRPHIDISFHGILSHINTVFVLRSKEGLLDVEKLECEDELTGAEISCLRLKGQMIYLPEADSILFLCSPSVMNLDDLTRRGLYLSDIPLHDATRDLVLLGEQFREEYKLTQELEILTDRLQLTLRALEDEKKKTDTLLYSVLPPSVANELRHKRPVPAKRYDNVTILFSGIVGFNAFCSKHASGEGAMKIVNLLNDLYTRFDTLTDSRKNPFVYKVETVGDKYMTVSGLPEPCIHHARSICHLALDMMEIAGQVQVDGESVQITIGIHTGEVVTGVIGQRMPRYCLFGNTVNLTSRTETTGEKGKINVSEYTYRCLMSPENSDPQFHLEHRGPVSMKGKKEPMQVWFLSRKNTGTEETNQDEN
Assay: Action on recombinant guanylate cyclase reporter cell line
Assay type: cell-based
Settings: in some cases mean values from individual determinations
Summary of the method: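 Rat recombinant guanylate cyclase reporter cell line measures cellular activity. Value reported as MEC (minimal effective concentration), sometimes averaged over individual determinations.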

Structure (SMILES)	MEC (minimal effective concentration) [µM]
Cc1nc2c(OCc3c(F)cccc3F)cccn2c1C(=O)NC1CCN(Cc2ccccc2)C1 (racemic) [Example 85, rac-N-(1-benzylpyrrolidin-3-yl)-8-[(2,6-difluoro-benzyl)oxy]-2-methylimidazo[1,2-a]-pyridine-3-carboxamide]	1.00
Cc1cc(OCc2c(F)cccc2F)c2nc(C)c(C(=O)NC[C@H]3CCCN3)n2c1 [Example 116, 8-[(2,6-difluorobenzyl)oxy]-2,6-dimethyl-N-[(2R)-pyrrolidin-2-ylmethyl]imidazo[1,2-a]-pyridine-3-carboxamide]	3.00
CCCC(C)(N)CNC(=O)c1c(C)nc2c(OCc3c(F)ccc(F)c3F)cc(C)cn12 (racemic) [Example 293, rac-N-(2-amino-2-methylpentyl)-2,6-dimethyl-8-[(2,3,6-trifluorobenzyl)oxy]imidazo[1,2-a]pyridine-3-carboxamide]	0.03
Cc1nc2c(OCc3c(F)cccc3F)cc(Cl)cn2c1C(=O)NCCC1(N)CCCCC1 [Example 33, N-[2-(1-Aminocyclohexyl)ethyl]-6-chloro-8-[(2,6-difluorobenzyl)oxy]-2-methylimidazo[1,2-a]-pyridine-3-carboxamide]	0.30
Cc1cc(OCc2c(F)cccc2F)c2nc(C)c(C(=O)NC(CN)c3ccc4c(c3)OCCO4)n2c1 (racemic) [Example 388, rac-N-[2-amino-1-(2,3-dihydro-1,4-benzodioxin-6-yl)ethyl]-8-[(2,6-difluorobenzyl)oxy]-2,6-dimethylimidazo[1,2-a]pyridine-3-carboxamide]	0.30
Cc1nc2c(OCc3c(F)cccc3F)cccn2c1C(=O)NCC(C)CN (single isomer, unassigned) [Example 96, ent-N-(3-Amino-2-methylpropyl)-8-[(2,6-difluorobenzyl)oxy]-2-methylimidazo[1,2-a]pyridine-3-carboxamide dihydrochloride]	1.00
Cc1nc2c(OCc3c(F)cccc3F)cccn2c1C(=O)NCCN1CCOCC1 [Example 89, 8-[(2,6-difluorobenzyl)oxy]-2-methyl-N-[2-(morpholin-4-yl)ethyl]imidazo[1,2-a]pyridine-3-carboxamide]	0.65
Cc1nc2c(OCc3c(F)cccc3F)cccn2c1C(=O)NC(C)[C@H](C)N (single isomer, unassigned) [Example 174]	0.30
Cc1cc(OCc2c(F)cccc2F)c2nc(C)c(C(=O)NCCN3CCN(C(C)C)CC3)n2c1 [Example 139, 8-[(2,6-difluorobenzyl)oxy]-N-[2-(4-isopropylpiperazin-1-yl)ethyl]-2,6-dimethylimidazo[1,2-a]pyridine-3-carboxamide]	1.00
Cc1nc2c(OCc3c(F)cccc3F)cccn2c1C(=O)NC(CN)COC(C)C (racemic) [Example 63, rac-N-(1-Amino-3-isopropoxypropan-2-yl)-8-[(2,6-difluorobenzyl)oxy]-2-methylimidazo[1,2-a]-pyridine-3-carboxamide]	0.30
NCC(NC(=O)c1c(C2CC2)nc2c(OCc3c(F)cccc3F)cccn12)c1ccc(F)c(F)c1 (stereo not drawn) [Example 54, ent-N-[2-amino-1-(3,4-difluorophenyl)ethyl]-2-cyclopropyl-8-[(2,6-difluorobenzyl)oxy]-imidazo[1,2-a]pyridine-3-carboxamide]	1.00
Cc1cc(OCc2c(F)cccc2F)c2nc(C)c(C(=O)NC3(C)CC3(C)N)n2c1 (racemic) [Example 320, rac-N-(2-amino-1,2-dimethylcyclopropyl)-8-[(2,6-difluorobenzyl)oxy]-2,6-dimethylimidazo[1,2-a]pyridine-3-carboxamide (racemate)]	0.30
CCCC[C@H](CN(C)C)NC(=O)c1c(C)nc2c(OCc3c(F)cccc3F)cccn12 [Example 68, ent-8-[(2,6-difluorobenzyl)oxy]-N-[(2R)-1-(dimethylamino)hexan-2-yl]-2-methylimidazo[1,2-a]-pyridine-3-carboxamide]	0.30
Cc1nc2c(OCc3c(F)cccc3F)cccn2c1C(=O)NC(CN1CCOCC1)c1ccccc1 (single isomer, unassigned; ent-8) [Example 183, ent-8-[(2,6-Difluorobenzyl)oxy]-2-methyl-N-[2-(morpholin-4-yl)-1-phenylethyl]imidazo[1,2-a]-pyridine-3-carboxamide]	1.00
Cc1cc(OCc2c(F)cccc2F)c2nc(C)c(C(=O)NC3CNCC3F)n2c1 (racemic) [Example 347, rac-8-[(2,6-Difluorobenzyl)oxy]-N-(4-fluoropyrrolidin-3-yl)-2,6-dimethylimidazo[1,2-a]pyridine-3-carboxamide]	1.00
Cc1nc2c(OCc3cccc(F)c3F)cccn2c1C(=O)NC(CN)c1ccc(F)c(F)c1 (stereo not shown) [Example 99]	1.00
CCC(C)(N)CNC(=O)c1c(C)nc2c(OCc3c(F)ccc(C4CC4)c3F)cc(C)cn12 (stereo not drawn) [Example 363, ent-N-(2-amino-2-methylbutyl)-8-[(3-cyclopropyl-2,6-difluorobenzyl)oxy]-2,6-dimethylimidazo[1,2-a]pyridine-3-carboxamide]	3.00
CCCC(C)(N)CNC(=O)c1c(C)nc2c(OCc3c(F)cccc3F)cc(CF)cn12 (stereo not drawn) [Example 403, ent-N-(2-amino-2-methylpentyl)-8-[(2,6-difluorobenzyl)oxy]-6-(fluoromethyl)-2-methylimidazo[1,2-a]pyridine-3-carboxamide]	0.10
Cc1cc(OCc2c(F)cccc2F)c2nc(C)c(C(=O)NC3CCNC(C(F)(F)F)C3)n2c1 (racemic) [Example 302, rac-8-[(2,6-difluorobenzyl)oxy]-2,6-dimethyl-N-[2-(trifluoromethyl)piperidin-4-yl]imidazo[1,2-a]pyridine-3-carboxamide]	0.10
COCC(N)CNC(=O)c1c(C)nc2c(OCc3c(F)cccc3F)cccn12 (single isomer, unassigned; enantiomer b) [Example 248, ent-N-(2-Amino-3-methoxypropyl)-8-[(2,6-difluorobenzyl)oxy]-2-methylimidazo[1,2-a]pyridine-3-carboxamide (Enantiomer B)]	1.00
Cc1nc2c(OCc3c(F)cccc3F)cccn2c1C(=O)NC(CNCC(F)(F)F)c1ccc(F)c(F)c1 (single isomer, unassigned; ent-8) [Example 222, ent-8-[(2,6-Difluorobenzyl)oxy]-N-{1-(3,4-difluorophenyl)-2-[(2,2,2-trifluoroethyl)amino]ethyl}-2-methylimidazo[1,2-a]pyridine-3-carboxamide]	0.30
Cc1nc2c(OCc3c(F)cccc3F)cccn2c1C(=O)NCC(N)C(F)(F)C(F)F (single isomer, unassigned) [Example 231, ent-N-(2-Amino-3,3,4,4-tetrafluorobutyl)-8-[(2,6-difluorobenzyl)oxy]-2-methylimidazo[1,2-a]-pyridine-3-carboxamide]	0.30
CCCC[C@H](CN1CCCC1)NC(=O)c1c(C)nc2c(OCc3c(F)cccc3F)cccn12 [Example 66, ent-8-[(2,6-difluorobenzyl)oxy]-2-methyl-N-[(2R)-1-(pyrrolidin-1-yl)hexan-2-yl]imidazo[1,2-a]-pyridine-3-carboxamide]	1.00
Cc1nc2c(OCc3c(F)cccc3F)cccn2c1C(=O)NC1CC2CCCC(C1)N2 (stereo not shown) [Example 27, N-(9-azabicyclo[3.3.1]non-3-yl)-8-[(2,6-difluorobenzyl)oxy]-2-methylimidazo[1,2-a]-pyridine-3-carboxamide]	1.00
Cc1nc2c(OCc3c(F)cccc3F)cccn2c1C(=O)NC1CNc2ccccc2C1 (racemic) [Example 75, rac-8-[(2,6-Difluorobenzyl)oxy]-2-methyl-N-(1,2,3,4-tetrahydroquinolin-3-yl)imidazo[1,2-a]-pyridine-3-carboxamide]	1.00
